Laboratory results reported in patent US12275703B2, “Highly purified batches of pharmaceutical grade migalastat and methods of producing the same” (Amicus Therapeutics, Inc., priority 2020, dated 2025).

System: bacterial reverse mutation
Assay: bacterial reverse mutation (Ames) test
Type: cell-based
Conditions: for Ames Positive?: bacterial reverse mutation (Ames) test; for Designated Genotoxin?: designation from Derek and Ames outcome
Description: The starting materials, reagents, intermediates, and process impurities generated in the manufacturing process for migalastat hydrochloride were assessed for their potential genotoxicity using in silico (Derek for Windows v13 Lhasa Ltd) screening software. The chemical structures which were DEREK negative were evaluated using Leadscope (Model Applier and Expert Alerts). […] Where possible, the genotoxicity of these materials was then assessed via the use of the bacterial reverse mutation (Ames) test.

Row | Structure (SMILES) | Ames Positive? | Designated Genotoxin? | also measured
1 | CC(C)(C)C(=O)OC[C@@H](N=[N+]=[N-])[C@@H]1O[C@@H](OC(=O)C(C)(C)C)[C@H](OC(=O)C(C)(C)C)[C@H]1OC(=O)C(C)(C)C [5-azido-5-deoxy-1,2,3,6-tetrapivaloyl-D-galactofuranoside] | No | No | 
2 | CC(C)(C)C(=O)OC[C@@H](OS(=O)(=O)C(F)(F)F)[C@@H]1O[C@@H](OC(=O)C(C)(C)C)[C@H](OC(=O)C(C)(C)C)[C@H]1OC(=O)C(C)(C)C [Compound D] | not sufficiently stable for Ames testing | designated as genotoxins | Ames Positive? (listed as drawing 74): Insufficiently stable for Ames test; Designated Genotoxin? (listed as drawing 74): Yes
3 | CC(C)(C)C(=O)OC[C@H](OS(=O)(=O)C(F)(F)F)[C@@H]1O[C@@H](OC(=O)C(C)(C)C)[C@H](OC(=O)C(C)(C)C)[C@H]1OC(=O)C(C)(C)C [Compound F] | not sufficiently stable for Ames testing | designated as genotoxins | Ames Positive? (listed as drawing 75): Insufficiently stable for Ames test; Designated Genotoxin? (listed as drawing 75): Yes
4 | CC(C)(C)C(=O)OC[C@H](N=[N+]=[N-])[C@@H]1O[C@@H](OC(=O)C(C)(C)C)[C@H](OC(=O)C(C)(C)C)[C@H]1OC(=O)C(C)(C)C [Compound N] | No | No | 
5 | [N-]=[N+]=N[C@@H]1CO[C@@](O)(CO)[C@@H](O)[C@H]1O [Compound P] | Ames positive | confirmed as genotoxins | Ames Positive? (listed as drawing 79): Yes; Designated Genotoxin? (listed as drawing 79): Yes
6 | [N-]=[N+]=N[C@H](CO)[C@@H]1O[C@@H](O)[C@H](O)[C@H]1O [Compound Q] | Ames positive | confirmed as genotoxins | Ames Positive? (listed as drawing 78): Yes; Designated Genotoxin? (listed as drawing 78): Yes
7 | Cl.O[C@@H]1[C@H](O)[C@@H](O)CN[C@@H]1CCl [Compound X] | Ames positive | confirmed as genotoxins | Ames Positive? (listed as drawing 80): Yes; Designated Genotoxin? (listed as drawing 80): Yes
8 | CCCl [Ethyl chloride] | Yes | Yes | 
